From US8986696B2, “Trans-capsular administration of p38 map kinase inhibitors into orthopedic joints” (DePuy Mitek, Inc., priority 2007, dated 2015)
Like-named read-outs stand apart in the source and are kept apart here.

How the values were obtained:
[1] = tested on: IL-1β-stimulated PGE2 synthesis, bovine chondrocyte pellets / ARC tissues; assay: chondrocyte pellet culture model: PGE2; assay type: cell-based
[2] = tested on: rabbit anterior cruciate ligament transection (ACLT) model of osteoarthritis; assay: ACLT model, therapeutic dosing regimen (Example IX); assay type: in vivo
Method: 130 Female New Zealand white rabbits underwent ACLT on the right knee. Intra-articular injections were administered to the operated knee once per week for five weeks beginning either one or six weeks after the ACLT. All animals were euthanized one week after the administration of the fifth injection. Gross observations were made on the knee joints according to a predetermined grading scale. The stifle joints were removed. Samples were preserved in 10% neutral buffered formalin. The stifle joints were photographed using high-resolution photography.
The ACLT was performed according to the ACLT model discussed above. Animals were group housed in pens on the floor and left untreated for six weeks to allow osteoarthritis to develop. Then, once weekly for five weeks, intra-articular injections were administered. One week following the last injection, the animals were sacrificed. The total in-life portion of this regimen was eleven weeks post-ACLT.
The study design consisted of an n=10 per group. A total of 160 μl was injected at each administration.
At the time of sacrifice the following parameters were evaluated grossly (the scale follows in parenthesis):
Each parameter was given a score. The combination of all parameters gave a Total Score (0-52). Additionally, combinations of the three subsets of data yielded scores for All Trochlear Groove Effects (0-10), All Condylar Effects (0-18) and All Tibial Plateau Effects (0-24). Lastly, an […] was obtained. The score for […] ranges from 0 to 40. The grades that compose this parameter are trochlear groove thickness and erosion, all the grades in All Condylar Effects, and all grades listed under Tibial Plateau. A higher score indicates more damage to the joint. A lower score indicates less damage or more cartilage preservation in the joint. Individual results for each parameter assessed were tabulated.

[3] = assay type: physicochemical
Method: JNJ 3026582 (RWJ 67657) was gamma irradiated on dry ice at a dose of 15 kgray. Then the sterile drug was aseptically mixed with ORTHOVISC® in the concentrations of 10 μg/mL and 100 μg/mL. Drug content uniformity was confirmed by reverse phase HPLC. There was approximately 100% drug stability.
JNJ 17089540 (RWJ 669307) was gamma irradiated on dry ice at a dose of 15 kgray. The sterile drug as aseptically mixed with ORTHOVISC® in the concentrations of 1 ug/uL and 10 ug/uL. Drug content uniformity was confirmed by reverse phase HPLC. There was approximately 100% drug stability.
Suprofen was gamma irradiated on dry ice at dose of 15 kgray. The sterile drug was aseptically mixed with ORTHOVISC® in the concentration of 1.3 ug/uL. Drug content uniformity at time of preparation and stability of 4 months at 4° C. was confirmed by reverse phase HPLC that there was around 100% drug stability.

[4] = Therapeutic Dosing Regimen, mean gross score, 0 = Absent, 1 = Present
[5] = Therapeutic Dosing Regimen, mean gross score, scale 0-5
[6] = Therapeutic Dosing Regimen, mean gross score, scale 0 = 0, 1 = 1, 2 = 2, 3 ≧ 2
[7] = Therapeutic Dosing Regimen, mean gross score, scale 0 = no damage to 3 = severe

With `CC(=O)N1CCN(c2c(-c3ccncc3)c(-c3ccc(F)cc3)c(C#N)n2C)CC1` [JNJ 17089540 (RWJ 669307)] the IC50 ([1]; Pellet Assay, read-out: PGE2 Inhibition IC50) was 29.6 µM, the IC50 ([1]; bovine ARC, 7.5 ng/ml IL-1β, five days, read-out: PGE2 IC50) was 29.6 µM and the “Trochlear Groove Erosion of Cartilage” value ([2]; Therapeutic Dosing Regimen, mean gross score, 0 = 0, 1 < 25%, 2 = 25-50%, 3 > 50%) was 1.6. For the same molecule, the “Tibial Plateau Presence of Clefts (Lateral)” value [2, 4] was 0, the “Tibial Plateau Presence of Clefts (Medial)” value [2, 4] was 0 and the “Trochlear Groove Thickening” value ([2]; Therapeutic Dosing Regimen, mean gross score, 0 = Normal, 1 = Thickened Areas) was 0. The “Femoral Condyle Presence of Clefts” value ([2]; Therapeutic Dosing Regimen, mean gross score, 0 = absent, 1 = unicondylar, 2 = both condyles) was 0, the “Femoral Condyle % Surface Area Erosion (Lateral)” value [2, 5] was 1.1 and the “Femoral Condyle % Surface Area Erosion (Medial)” value [2, 5] was 0.4. For the same molecule, the “Tibial Plateau % Surface Area Erosion (Lateral)” value [2, 5] was 1.4, the “Tibial Plateau % Surface Area Erosion (Medial)” value [2, 5] was 0 and the “Tibial Plateau # of Osteophytes (Lateral)” value [2, 6] was 0.7. The “Tibial Plateau # of Osteophytes (Medial)” value [2, 6] was 1.5, the “Trochlear Groove # of Osteophytes” value [2, 6] was 3.0 and the “Trochlear Groove Osteophyte Size” value ([2]; Therapeutic Dosing Regimen, mean gross score, scale 0 = 0, 1 ≦ 1 mm, 2 = 1-2 mm, 3 > 2 mm) was 3.0. For the same molecule, the “Femoral Condyle Depth of Erosion (Lateral)” value [2, 7] was 1.1, the “Femoral Condyle Depth of Erosion (Medial)” value [2, 7] was 0.2 and the “Tibial Plateau Depth of Erosion (Lateral)” value [2, 7] was 1.2. For the same molecule, the “Tibial Plateau Depth of Erosion (Medial)” value [2, 7] was 0, the “Combination Scores: All Trochlear Groove Effects” value ([2]; Therapeutic Dosing Regimen, mean, 0-10, 10 = max damage) was 7.6 and the “Combination Scores: All Condylar Effects” value ([2]; Therapeutic Dosing Regimen, mean, 0-18, 18 = max damage) was 2.8. For the same molecule, the “Combination Scores: All Tibial Plateau Effects” value ([2]; Therapeutic Dosing Regimen, mean, 0-24, 24 = max damage) was 4.8, the “Combination Scores: All Cartilage Effects” value ([2]; Therapeutic Dosing Regimen, mean, 0-40, 40 = max damage) was 7.0 and the “Combination Scores: Total Score” value ([2]; Therapeutic Dosing Regimen, mean, 0-52, 52 = max damage) was 15.2. For the same molecule, the “All Cartilage Effects, mean score” value ([2]; therapeutic dosing regimen) was 7.0+1.0, the “all condylar effects, mean score” value ([2]; therapeutic dosing regimen) was 2.8 ± 0.6 and the “depth of the erosion on the lateral femoral condyle, mean score” value ([2]; therapeutic dosing regimen) was 1.1 ± 0.4. The “depth of the erosion on the medial femoral condyle, mean score” value ([2]; therapeutic dosing regimen) was 0.2 ± 0.1, the “percent surface area erosion of the lateral femoral condyle, mean score” value ([2]; therapeutic dosing regimen) was 1.1 ± 0.4 and the “percent surface area erosion of the medial femoral condyle, mean score” value ([2]; therapeutic dosing regimen) was 0.4 ± 0.2. For the same molecule, the “total score, mean” value ([2]; therapeutic dosing regimen) was 15.2 ± 1.2 and the drug stability [3] was “approximately 100%”.
